Read-outs that look alike come from different tables or passages of the source.

Test [1] deals with Pim-1 stably transfected U2OS human osteogenic sarcoma line. Kind of test: Pim cell assay U2OS (phospho-BAD normalized against total BAD), Pim-1 transfected. The format is cell-based. The note with it: Homo sapiens, U2OS.
Test [2] concerns the target full length recombinant Pim-1 (Homo sapiens (Human), UniProt P11309). Kind of test: Pim enzyme assay (HTRF, phosphorylation of biotinylated-BAD (S112) peptide), Pim-1. The format is biochemical.
The subject of test [3] is Pim-2 stably transfected U2OS human osteogenic sarcoma line. Kind of test: Pim cell assay U2OS (phospho-BAD normalized against total BAD), Pim-2 transfected. The format is cell-based. The conditions noted are these: Homo sapiens, read-out: U2OS Pim2_Cell_IC50.
Test [4] has as its target full length recombinant Pim-2 (Homo sapiens (Human), UniProt Q9P1W9). Kind of test: Pim enzyme assay (HTRF, phosphorylation of biotinylated-BAD (S112) peptide), Pim-2. The conditions noted are these: Pim-2 enzyme assay; read-out: Pim2_IC50. The format is biochemical.
The target in test [5] is full length recombinant Pim-3 (Homo sapiens (Human), UniProt Q86V86). Kind of test: Pim enzyme assay (HTRF, phosphorylation of biotinylated-BAD (S112) peptide), Pim-3. The test is classed as biochemical. The conditions noted are these: Pim-3 enzyme assay; read-out: Pim3 IC50. The gist of the method:
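Full-length recombinant Pim-3 phosphorylated biotinylated BAD (S112) peptide in 60 mM Hepes pH 7.0, 0.05% BSA, 2 mM DTT for 1 h 30 min at 22 °C. After EDTA stop, HTRF was read with Eu anti-phospho-BAD and streptavidin-APC. IC50 came from 4-parameter logistic fit of percent-of-control values.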

[6] abbreviates: Pim-1 enzyme assay, read-out: Pim_1_IC50.
[7] abbreviates: read-out: U2OS Pim1_Cell_IC50, U2OS cells, Pim-1 transfected.

Chain of full length recombinant Pim-2 (Q9P1W9 whole entry): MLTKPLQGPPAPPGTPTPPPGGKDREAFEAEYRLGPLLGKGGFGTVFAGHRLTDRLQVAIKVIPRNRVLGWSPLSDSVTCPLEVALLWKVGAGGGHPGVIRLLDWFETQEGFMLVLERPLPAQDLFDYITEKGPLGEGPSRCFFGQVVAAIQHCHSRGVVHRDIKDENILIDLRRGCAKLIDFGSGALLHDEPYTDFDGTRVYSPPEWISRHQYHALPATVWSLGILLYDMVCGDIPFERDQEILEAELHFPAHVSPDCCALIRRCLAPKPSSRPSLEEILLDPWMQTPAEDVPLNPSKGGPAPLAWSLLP
Chain of full length recombinant Pim-1 (P11309 whole entry): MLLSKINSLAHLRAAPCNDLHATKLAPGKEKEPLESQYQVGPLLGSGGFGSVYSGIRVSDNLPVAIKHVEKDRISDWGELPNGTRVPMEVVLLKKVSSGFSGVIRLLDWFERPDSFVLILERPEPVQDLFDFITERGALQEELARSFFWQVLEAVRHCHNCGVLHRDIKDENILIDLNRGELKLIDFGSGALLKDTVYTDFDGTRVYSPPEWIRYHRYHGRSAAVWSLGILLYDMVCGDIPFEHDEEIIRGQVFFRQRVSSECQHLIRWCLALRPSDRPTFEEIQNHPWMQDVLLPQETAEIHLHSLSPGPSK

Consider `CC(C)Nc1nnc(-c2ccc3[nH]cc(-c4cncc(C5CC5)n4)c3c2)o1` [Example 46, 5-(3-(6-cyclopropylpyrazin-2-yl)-1H-indol-5-yl)-N-isopropyl-1,3,4-oxadiazol-2-amine], for which the IC50 in test [1] (read-out: U2OS Pim1_Cell_IC50) is 32.1 nM; in test [2] (setting [6]), 1.39 nM; in test [3] (U2OS cells, Pim-2 transfected) it was 827 nM; in test [4] it was 4.25 nM; in test [5], 0.498 nM.
Take `CN(C)c1cncc(-c2c[nH]c3ccc(-c4nnc(N)s4)cc23)n1` [Example 158, 6-(5-(5-amino-1,3,4-thiadiazol-2-yl)-1H-indol-3-yl)-N,N-dimethyl-2-pyrazinamine]: the IC50 in test [1] (setting [7]) was 133 nM; in test [2] (setting [6]), 8.18 nM; in test [3] (U2OS cells, Pim-2 transfected), 3040 nM; in test [4], 28.2 nM; in test [5], 3.86 nM.
On to `c1cc(-c2c[nH]c3ccc(-c4nncs4)cc23)nc(N2CCOCC2)c1` [Example 28, 4-(6-(5-(1,3,4-thiadiazol-2-yl)-1H-indol-3-yl)pyridin-2-yl)morpholine], for which the IC50 is 1070 nM in test [1] (read-out: U2OS Pim1_Cell_IC50); 40.7 nM in test [2] (setting [6]); more than 31600 nM in test [3] (U2OS cells, Pim-2 transfected); 157 nM in test [4]; 27 nM in test [5].
Consider `CC(C)Nc1cccc(-c2c[nH]c3ccc(-c4nnc(N)s4)cc23)n1` [Example 203, 6-(5-(5-amino-1,3,4-thiadiazol-2-yl)-1H-indol-3-yl)-N-(1-methylethyl)-2-pyridinamine], for which the IC50 in test [1] (setting [7]) is 384 nM; in test [2] (setting [6]), 20.9 nM; in test [3] (U2OS cells, Pim-2 transfected) it was 2190 nM; in test [4], 37.2 nM; in test [5], 5.42 nM.
The corresponding values for `CNc1nnc(-c2ccc3[nH]cc(-c4nccc(N5CCOCC5)n4)c3c2)s1` [Example 134, N-methyl-5-(3-(4-(4-morpholinyl)-2-pyrimidinyl)-1H-indol-5-yl)-1,3,4-thiadiazol-2-amine] are 1440 nM, 38 nM, 6110 nM, 16.3 nM and 12.3 nM.
For `CC(C)Nc1ccnc(-c2c[nH]c3ccc(-c4nnc(N)o4)cc23)n1` [Example 103, 2-(5-(5-amino-1,3,4-oxadiazol-2-yl)-1H-indol-3-yl)-N-(1-methylethyl)-4-pyrimidinamine], the IC50 was 739 nM in test [1] (read-out: U2OS Pim1_Cell_IC50); 6.9 nM in test [2] (setting [6]); 1220 nM in test [3] (U2OS cells, Pim-2 transfected); 2.24 nM in test [4]; 1.67 nM in test [5].
With `CNc1nnc(-c2ccc3[nH]cc(-c4cncc(N(C)C)n4)c3c2)s1` [Example 231, N,N-dimethyl-6-(5-(5-(methylamino)-1,3,4-thiadiazol-2-yl)-1H-indol-3-yl)-2-pyrazinamine], the IC50 in test [1] (read-out: U2OS Pim1_Cell_IC50) was 377 nM; in test [2], 38.2 nM; in test [3] (U2OS), more than 31600 nM; in test [4], 137 nM; in test [5], 9.89 nM.
Turning to `Nc1nnc(-c2ccc3[nH]cc(-c4cncc(NC5CCCC5)n4)c3c2)o1` [Example 4, 5-(3-(6-(cyclopentylamino)pyrazin-2-yl)-1H-indol-5-yl)-1,3,4-oxadiazol-2-amine], the IC50 in test [1] (read-out: U2OS Pim1_Cell_IC50) was 27 nM; in test [2] (setting [6]), 1.01 nM; in test [3] (U2OS cells, Pim-2 transfected), 342 nM; in test [4], 2 nM; in test [5] it was 0.586 nM.
Consider `Nc1nnc(-c2ccc3[nH]cc(-c4cccc(-c5ccccc5)n4)c3c2)s1` [Example 130, 5-(3-(6-phenyl-2-pyridinyl)-1H-indol-5-yl)-1,3,4-thiadiazol-2-amine], for which the IC50 in test [1] (read-out: U2OS Pim1_Cell_IC50) was 7880 nM; in test [2] (setting [6]), 39.6 nM; in test [3] (U2OS cells, Pim-2 transfected), more than 31600 nM; in test [4], 39 nM; in test [5], 20.5 nM.
As for `C[C@H]1CCCCN1c1cccc(-c2c[nH]c3ccc(-c4nnc(N)s4)cc23)n1` (stereo in doubt) [Example 167, 5-(3-(6-(2-methyl-1-piperidinyl)-2-pyridinyl)-1H-indol-5-yl)-1,3,4-thiadiazol-2-amine], the IC50 in test [1] (read-out: U2OS Pim1_Cell_IC50) was 421 nM; in test [2] (setting [6]), 19 nM; in test [3] (U2OS cells, Pim-2 transfected), 25000 nM; in test [4], 64.4 nM; in test [5], 5.87 nM.
As for `CNc1nnc(-c2ccc3[nH]cc(-c4nccc(N5CCN(C)CC5)n4)c3c2)s1` [Example 132, N-methyl-5-(3-(4-(4-methyl-1-piperazinyl)-2-pyrimidinyl)-1H-indol-5-yl)-1,3,4-thiadiazol-2-amine], the IC50 in test [1] (read-out: U2OS Pim1_Cell_IC50) is 1470 nM; in test [2] (setting [6]) it was 11 nM; in test [3] (U2OS cells, Pim-2 transfected) it was 6910 nM; in test [4] it was 33.6 nM; in test [5], 3.98 nM.
As for `Nc1nnc(-c2ccc3[nH]cc(-c4nccc(-c5ccccc5Cl)n4)c3c2)o1` [Example 118, 5-(3-(4-(2-chlorophenyl)-2-pyrimidinyl)-1H-indol-5-yl)-1,3,4-oxadiazol-2-amine], the IC50 is 217 nM in test [1] (read-out: U2OS Pim1_Cell_IC50); 16.7 nM in test [2] (setting [6]); more than 31600 nM in test [3] (U2OS cells, Pim-2 transfected); 19.2 nM in test [4]; 15.7 nM in test [5].
The corresponding values for `COc1cc(-c2c[nH]c3ccc(-c4nnc(N)s4)cc23)nc(OC(C)C)n1` [Example 200, 5-(3-(6-methoxy-2-(1-methylethoxy)-4-pyrimidinyl)-1H-indol-5-yl)-1,3,4-thiadiazol-2-amine] are 112 nM, 15.4 nM, 3800 nM, 30.1 nM and 2.17 nM.
The corresponding values for `CNc1nnc(-c2ccc3[nH]cc(-c4cccc(-n5cnc(C)c5)n4)c3c2)s1` [Example 228, N-methyl-5-(3-(6-(4-methyl-1H-imidazol-1-yl)-2-pyridinyl)-1H-indol-5-yl)-1,3,4-thiadiazol-2-amine] are more than 31600 nM, 13.2 nM, more than 31600 nM, 8.28 nM and 1.5 nM.
The corresponding values for `CC(C)Nc1nnc(-c2ccc3[nH]cc(-c4nccc(C5CC5)n4)c3c2)o1` [Example 264, 5-(3-(4-cyclopropyl-2-pyrimidinyl)-1H-indol-5-yl)-N-(1-methylethyl)-1,3,4-oxadiazol-2-amine] are 25.8 nM, 1.4 nM, 238 nM, 1.39 nM and 0.435 nM.
Consider `Cc1cn(-c2cccc(-c3c[nH]c4ccc(-c5nnc(N)s5)cc34)n2)cn1` [Example 155, 5-(3-(6-(4-methyl-1H-imidazol-1-yl)-2-pyridinyl)-1H-indol-5-yl)-1,3-4-thiadiazol-2-amine], for which the IC50 in test [1] (setting [7]) is 259 nM; in test [2] (setting [6]), 4.42 nM; in test [3] (U2OS cells, Pim-2 transfected) it was more than 31600 nM; in test [4] it was 2.25 nM; in test [5], 0.425 nM.
As for `Nc1nnc(-c2ccc3[nH]cc(-c4cncc(NCC5CC5)n4)c3c2)s1` [Example 207, 6-(5-(5-amino-1,3,4-thiadiazol-2-yl)-1H-indol-3-yl)-N-(cyclopropylmethyl)-2-pyrazinamine], the IC50 amounted to 37.4 nM in test [1] (read-out: U2OS Pim1_Cell_IC50); 1.77 nM in test [2] (setting [6]); 1090 nM in test [3] (U2OS cells, Pim-2 transfected); 7.71 nM in test [4]; 1.68 nM in test [5].
For the compound `Nc1nnc(-c2ccc3[nH]cc(-c4nccc(C5CC5)n4)c3c2)o1` [Example 94, 5-(3-(4-cyclopropyl-2-pyrimidinyl)-1H-indol-5-yl)-1,3,4-oxadiazol-2-amine], the IC50 in test [1] (setting [7]) was determined as 75.2 nM; in test [2] (setting [6]), 5.19 nM; in test [3] (U2OS cells, Pim-2 transfected) it was 280 nM; in test [4], 0.984 nM; in test [5], 0.998 nM.
The corresponding values for `Nc1nnc(-c2ccc3[nH]cc(-c4cncc(O[C@@H]5CCCNC5)n4)c3c2)o1` [Example 99, 5-(3-(6-((3R)-3-piperidinyloxy)-2-pyrazinyl)-1H-indol-5-yl)-1,3,4-oxadiazol-2-amine] are 12200 nM, 6.77 nM, more than 31600 nM, 12.9 nM and 12.4 nM.
Regarding `Nc1nnc(-c2ccc3[nH]cc(-c4csc(-n5ccccc5=O)n4)c3c2)s1` [Example 177, 1-(4-(5-(5-amino-1,3,4-thiadiazol-2-yl)-1H-indol-3-yl)-1,3-thiazol-2-yl)-2(1H)-pyridinone], the IC50 in test [1] (read-out: U2OS Pim1_Cell_IC50) was 538 nM; in test [2] (setting [6]) it was 45.8 nM; in test [3] (U2OS cells, Pim-2 transfected), more than 31600 nM; in test [4], 91.2 nM; in test [5], 30.5 nM.
For `c1ccc(-c2nnc(-c3ccc4[nH]cc(-c5cncc(C6CC6)n5)c4c3)o2)cc1` [Example 254, 3-(6-cyclopropyl-2-pyrazinyl)-5-(5-phenyl-1,3,4-oxadiazol-2-yl)-1H-indole], in that order: more than 15800 nM, 175 nM, 808 nM, more than 1000 nM and 138 nM.
The corresponding values for `Cc1cn(-c2nc(-c3c[nH]c4ccc(-c5nnc(N)s5)cc34)cs2)cn1` [Example 170, 5-(3-(2-(4-methyl-1H-imidazol-1-yl)-1,3-thiazol-4-yl)-1H-indol-5-yl)-1,3,4-thiadiazol-2-amine] are 876 nM, 34.8 nM, more than 31600 nM, 100 nM and 9.47 nM.

These data come from US9321756B2, “Azole compounds as PIM inhibitors” (priority 2011, dated 2016).
